Data published in patent US20110098296A1, “Thiazole And Oxazole Kinase Inhibitors” (priority 2007, published 2011).

Tests used:
[1] = test system: BT474 tumor cells; assay: Method A: Methylene Blue Growth Inhibition Assay, BT474; format: cell-based; conditions: Homo sapiens, BT-474, 72 h, 3 days
Procedure: (§1) Human breast (BT474) and head and neck (HN5) tumor cells were cultured in low glucose DMEM (Life Technologies 12320-032) containing 10% fetal bovine serum (FBS). Human colon tumor cells (Colo205) were cultured in DMEM (Invitrogen, 10564) containing 10% FBS. The SV40 transformed human mammary epithelial cell line HB4a was transfected with either human H-ras cDNA (HB4a r4.2) or the human c-ErbB2 cDNA (HB4a c5.2). The HB4a clones were cultured in RPMI containing 10% FBS, insulin (5 g/mL), hydrocortisone (5 g/mL), supplemented with the selection agent hygromycin B (50 g/mL). All lines were grown in a humidified incubator at 37° C. in 95% air, 5% CO2. Cells were harvested using trypsin/EDTA, counted using a haemocytometer, and plated in 100 μL of the appropriate media, at the following densities, in a 96-well tissue culture plate (Falcon 3075): BT474 10,000 cells/well, HN5 3,000 cells/well. The next day, compounds were diluted in DMEM containing […] gentamicin, at twice the final required concentration, from 10 mM stock solutions in DMSO. 100 μl/well of these dilutions were added to the 100 μL of media currently on the cell plates. Medium containing 0.6% DMSO was added to control wells. Compounds diluted in DMEM were added to all cell lines. The final concentration of DMSO in all wells was 0.3%. Cells were returned to the incubator (37° C., […]) for 3 days. Medium was then removed by aspiration. Cell biomass was estimated by staining cells with 90 μL/well methylene blue (Sigma M9140, 0.5% in 1:1 EtOH:H2O), and incubation at room temperature for at least 30 minutes. Stain was removed, and the plates rinsed by immersion in deionized H2O and air-dried. To release stain from the cells 100 μL of solubilization solution were added (1% N-lauroyl sarcosine, sodium salt, Sigma L5125, in PBS), and plates were shaken gently for about 30 minutes. Optical density at 620 nm was measured on a microplate reader. Percent inhibition of cell growth was calculated relative to vehicle-treated control wells. Concentration of compound that inhibits 50% of control cell growth (IC50) was interpolated using nonlinear regression (Levenberg-Marquardt) and the equation,
(§2) y=Vmax*(1−(x/(K+x)))+Y2, where “K” was equal to the IC50.

[2] = biological target: T1, ErbB2 (Homo sapiens, UniProt P04626); assay: ErbB-2 substrate phosphorylation assay (HTRF); format: biochemical
T1 construct: made in house; host or cells: baculovirus expression system
T1 sequence (P04626 23-1255): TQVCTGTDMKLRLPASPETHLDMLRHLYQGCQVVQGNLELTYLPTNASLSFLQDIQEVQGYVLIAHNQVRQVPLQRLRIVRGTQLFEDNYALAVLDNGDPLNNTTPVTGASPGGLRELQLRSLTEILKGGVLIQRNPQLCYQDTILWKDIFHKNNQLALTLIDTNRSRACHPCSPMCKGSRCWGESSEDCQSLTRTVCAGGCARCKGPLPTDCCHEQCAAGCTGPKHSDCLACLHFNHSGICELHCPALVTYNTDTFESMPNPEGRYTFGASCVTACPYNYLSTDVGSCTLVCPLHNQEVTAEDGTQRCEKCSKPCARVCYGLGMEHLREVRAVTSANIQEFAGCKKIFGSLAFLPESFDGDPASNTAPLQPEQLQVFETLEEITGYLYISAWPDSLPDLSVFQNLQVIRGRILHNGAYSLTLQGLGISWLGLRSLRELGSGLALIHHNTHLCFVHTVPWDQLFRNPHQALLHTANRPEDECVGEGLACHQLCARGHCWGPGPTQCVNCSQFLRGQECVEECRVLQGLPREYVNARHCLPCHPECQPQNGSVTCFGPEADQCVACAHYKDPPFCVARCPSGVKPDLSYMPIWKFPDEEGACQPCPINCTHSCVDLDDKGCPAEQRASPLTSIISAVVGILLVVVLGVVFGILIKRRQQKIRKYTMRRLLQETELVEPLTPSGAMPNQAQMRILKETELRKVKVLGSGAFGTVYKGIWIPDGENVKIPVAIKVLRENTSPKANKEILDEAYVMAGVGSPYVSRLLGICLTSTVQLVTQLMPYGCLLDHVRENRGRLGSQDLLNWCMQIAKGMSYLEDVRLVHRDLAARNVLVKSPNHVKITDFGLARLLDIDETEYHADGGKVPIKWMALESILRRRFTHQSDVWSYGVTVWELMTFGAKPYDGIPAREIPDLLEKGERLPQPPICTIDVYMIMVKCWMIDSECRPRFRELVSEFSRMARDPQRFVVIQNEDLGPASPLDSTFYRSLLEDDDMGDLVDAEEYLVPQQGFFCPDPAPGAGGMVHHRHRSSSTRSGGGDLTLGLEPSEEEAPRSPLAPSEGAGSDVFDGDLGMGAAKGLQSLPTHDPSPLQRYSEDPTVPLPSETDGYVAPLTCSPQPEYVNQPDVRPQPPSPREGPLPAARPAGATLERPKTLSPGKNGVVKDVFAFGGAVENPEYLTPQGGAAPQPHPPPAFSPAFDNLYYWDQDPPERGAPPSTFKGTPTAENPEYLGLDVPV
Summary of the method: (§3)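 Baculovirus-expressed kinase (0.8 nM EGFR or 10 nM ErbB2 in enzyme mix) with Peptide C 0.8 μM and ATP 20 μM (substrate-mix levels), MOPS pH 7.5, MnCl2; 90 min, 20 °C, HTRF anti-phosphotyrosine. Method A adds 1 h enzyme–compound preincubation; B none. pIC50, final compound 0.00027–47.6 μM.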

[3] = test system: HN5 tumor cells; assay: Method A: Methylene Blue Growth Inhibition Assay, HN5; format: cell-based; conditions: Homo sapiens, 72 h, 3 days
Procedure: as §1, §2

[4] = biological target: T2, EGFR (Homo sapiens, UniProt P00533); assay: EGFR substrate phosphorylation assay (HTRF); format: biochemical
T2 construct: made in house; host or cells: baculovirus expression system
T2 sequence (P00533 25-1210): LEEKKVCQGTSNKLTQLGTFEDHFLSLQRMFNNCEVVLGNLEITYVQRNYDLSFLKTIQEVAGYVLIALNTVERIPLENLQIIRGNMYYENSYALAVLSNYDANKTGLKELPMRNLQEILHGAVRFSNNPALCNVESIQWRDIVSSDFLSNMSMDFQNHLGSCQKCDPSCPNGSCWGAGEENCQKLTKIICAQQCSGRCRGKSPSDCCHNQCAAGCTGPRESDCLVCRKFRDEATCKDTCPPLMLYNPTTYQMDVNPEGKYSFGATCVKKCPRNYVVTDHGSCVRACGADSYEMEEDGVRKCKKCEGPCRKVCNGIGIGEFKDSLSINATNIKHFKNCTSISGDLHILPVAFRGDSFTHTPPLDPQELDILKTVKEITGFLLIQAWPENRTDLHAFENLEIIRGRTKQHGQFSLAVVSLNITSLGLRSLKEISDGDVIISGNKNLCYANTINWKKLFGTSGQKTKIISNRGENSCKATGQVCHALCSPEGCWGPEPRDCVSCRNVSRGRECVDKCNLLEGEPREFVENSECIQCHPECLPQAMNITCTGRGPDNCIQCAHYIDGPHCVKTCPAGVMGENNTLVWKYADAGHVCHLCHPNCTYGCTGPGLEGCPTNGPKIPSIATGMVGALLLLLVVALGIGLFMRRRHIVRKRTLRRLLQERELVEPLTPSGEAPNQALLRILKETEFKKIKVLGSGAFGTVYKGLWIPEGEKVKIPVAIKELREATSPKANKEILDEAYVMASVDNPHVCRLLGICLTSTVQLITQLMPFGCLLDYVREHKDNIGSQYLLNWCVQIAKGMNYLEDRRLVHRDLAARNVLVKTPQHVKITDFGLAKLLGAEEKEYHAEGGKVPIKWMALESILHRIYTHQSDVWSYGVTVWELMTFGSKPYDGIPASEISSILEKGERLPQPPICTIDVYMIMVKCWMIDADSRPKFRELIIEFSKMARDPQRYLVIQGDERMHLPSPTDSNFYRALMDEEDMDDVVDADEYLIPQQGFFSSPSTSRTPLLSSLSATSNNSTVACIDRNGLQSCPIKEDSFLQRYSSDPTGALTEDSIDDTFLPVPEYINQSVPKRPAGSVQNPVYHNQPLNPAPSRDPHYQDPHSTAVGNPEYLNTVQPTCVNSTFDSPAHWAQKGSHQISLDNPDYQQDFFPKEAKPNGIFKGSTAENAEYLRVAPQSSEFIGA
Summary of the method: as §3

[5] = test system: Colo205 tumor cells; assay: Method A: Methylene Blue Growth Inhibition Assay, Colo205; format: cell-based; conditions: Homo sapiens, COLO 205, 72 h, 3 days
Procedure: as §1, §2

[6] = Method (A): Enzyme Mix incubated with compound at 20° C. for 1 hr, reaction started by adding Substrate Mix
[7] = Method (B): Substrate Mix added to compound first, reaction started by adding Enzyme Mix

SMILES | IC50 [1] [nM] | IC50 [2, 6] [nM] | IC50 [3] [nM] | IC50 [4, 6] [nM] | IC50 [5] [nM] | IC50 [2, 7] [nM] | IC50 [4, 7] [nM]
O=C(Nc1cccc(-c2nc(NCCN3CCOCC3)sc2-c2ccnc(Nc3ccc4c(c3)CNCC4)n2)c1)c1c(F)cccc1F [Example 1, 2,6-Difluoro-N-(3-{2-{[2-(4-morpholinyl)ethyl]amino}-5-[2-(1,2,3,4-tetrahydro-7-isoquinolinylamino)-4-pyrimidinyl]-1,3-thiazol-4-yl}phenyl)benzamide] | < 100 | < 100 | < 100 | < 100 | 100 to 1000 |  | 
COCCOc1ccc(Nc2nccc(-c3sc(N)nc3-c3cccc(NC(=O)c4c(F)cccc4F)c3)n2)cc1F [Example 3] | < 100 | < 100 | < 100 | < 100 | 100 to 1000 |  | 
Nc1nc(-c2cccc(NC(=O)c3c(F)cccc3F)c2)c(-c2ccnc(Nc3cccc(-c4cnco4)c3)n2)s1 [Example 14, N-{3-[2-Amino-5-(2-{[3-(1,3-oxazol-5-yl)phenyl]amino}-4-pyrimidinyl)-1,3-thiazol-4-yl]phenyl}-2,6-difluorobenzamide] | < 100 | < 100 | < 100 | < 100 | < 100 |  | 
Nc1nc(-c2cccc(NC(=O)c3c(F)cccc3F)c2)c(-c2ccnc(Nc3ccc4c(c3)CNCC4)n2)s1 [Example 21, N-(3-{2-Amino-5-[2-(1,2,3,4-tetrahydro-7-isoquinolinylamino)-4-pyrimidinyl]-1,3-thiazol-4-yl}phenyl)-2,6-difluorobenzamide] | < 100 | < 100 | < 100 | < 100 | 100 to 1000 |  | 
COc1ccc(Nc2nccc(-c3sc(N)nc3-c3cccc(NC(=O)c4cc(F)ccc4F)c3)n2)cc1F [Example 50, N-{3-[2-Amino-5-(2-{[3-fluoro-4-(methyloxy)phenyl]amino}-4-pyrimidinyl)-1,3-thiazol-4-yl]phenyl}-2,5-difluorobenzamide] | 100 to 1000 | < 100 | < 100 | < 100 | > 1000 |  | 
CNc1nc(-c2cccc(NC(=O)c3cc(F)ccc3F)c2)c(-c2ccnc(Nc3ccc(OC)c(F)c3)n2)s1 [Example 51, 2,5-Difluoro-N-{3-[5-(2-{[3-fluoro-4-(methyloxy)phenyl]amino}-4-pyrimidinyl)-2-(methylamino)-1,3-thiazol-4-yl]phenyl}benzamide] | 100 to 1000 | < 100 | > 1000 | < 100 | > 1000 |  | 
COCCNc1nc(-c2cccc(NC(=O)c3cc(F)ccc3F)c2)c(-c2ccnc(Nc3ccc(OC)c(F)c3)n2)s1 [Example 52, 2,5-Difluoro-N-[3-(5-(2-{[3-fluoro-4-(methyloxy)phenyl]amino}-4-pyrimidinyl)-2-{[2-(methyloxy)ethyl]amino}-1,3-thiazol-4-yl)phenyl]benzamide] | < 100 | < 100 | 100 to 1000 | < 100 | 100 to 1000 |  | 
COc1ccc(Nc2nccc(-c3sc(NCCN4CCOCC4)nc3-c3cccc(NC(=O)c4cc(F)ccc4F)c3)n2)cc1F [Example 53, 2,5-Difluoro-N-[3-(5-(2-{[3-fluoro-4-(methyloxy)phenyl]amino}-4-pyrimidinyl)-2-{[2-(4-morpholinyl)ethyl]amino}-1,3-thiazol-4-yl)phenyl]benzamide] | < 100 | < 100 | < 100 | < 100 | 100 to 1000 |  | 
Nc1nc(-c2cccc(NC(=O)c3cc(F)ccc3F)c2)c(-c2ccnc(Nc3cccc(-c4cnco4)c3)n2)s1 [Example 54] | < 100 | < 100 | < 100 | < 100 | > 1000 |  | 
Nc1nc(-c2cccc(NC(=O)c3cc(F)ccc3F)c2)c(-c2ccnc(Nc3ccc4c(c3)CNCC4)n2)s1 [Example 57] | < 100 | < 100 | < 100 | < 100 | 100 to 1000 |  | 
COCCOc1ccc(Nc2nccc(-c3sc(N)nc3-c3cccc(NC(=O)c4cc(F)ccc4F)c3)n2)cc1F [Example 58, N-[3-(2-Amino-5-{2-[(3-fluoro-4-{[2-(methyloxy)ethy]oxy}phenyl)amino]-4-pyrimidinyl}-1,3-thiazol-4-yl)phenyl]-2,5-difluorobenzamide] | < 100 | < 100 | < 100 | < 100 | 100 to 1000 |  | 
CN(C)CCCNc1ccc(Nc2nccc(-c3sc(N)nc3-c3cccc(NC(=O)C4CCCCC4)c3)n2)cc1F [Example 60] | 100 to 1000 | < 100 | < 100 | < 100 | 100 to 1000 |  | 
CN(C)CCOc1ccc(Nc2nccc(-c3sc(N)nc3-c3cccc(NC(=O)C4CCCCC4)c3)n2)cc1Cl [Example 61] | 100 to 1000 | < 100 | < 100 | < 100 | 100 to 1000 |  | 
Nc1nc(-c2cccc(NC(=O)C3CCCCC3)c2)c(-c2ccnc(Nc3cccc(-c4cnco4)c3)n2)s1 [Example 62, N-{3-[2-Amino-5-(2-{[3-(1,3-oxazol-5-yl)phenyl]amino}-4-pyrimidinyl)-1,3-thiazol-4-yl]phenyl}cyclohexanecarboxamide] | 100 to 1000 | < 100 | < 100 | < 100 | 100 to 1000 |  | 
CN(C)CCCNc1ccc(Nc2nccc(-c3sc(N)nc3-c3cccc(NC(=O)c4cccn4C)c3)n2)cc1F [Example 65, N-[3-(2-Amino-5-{2-[(4-{[3-(dimethylamino)propyl]amino}-3-fluorophenyl)amino]-4-pyrimidinyl}-1,3-thiazol-4-yl)phenyl]-1-methyl-1H-pyrrole-2-carboxamide] | < 100 | < 100 | < 100 | < 100 | 100 to 1000 |  | 
CN(C)CCOc1ccc(Nc2nccc(-c3sc(N)nc3-c3cccc(OCc4ccccc4)c3)n2)cc1Cl [Example 70, 4-(2-Amino-4-{3-[(phenylmethyl)oxy]phenyl}-1,3-thiazol-5-yl)-N-(3-chloro-4-{[2-(dimethylamino)ethyl]oxy}phenyl)-2-pyrimidinamine] | 100 to 1000 | < 100 | 100 to 1000 | < 100 | 100 to 1000 |  | 
Nc1nc(-c2cccc(OCc3ccccc3)c2)c(-c2ccnc(Nc3ccc4c(c3)CNCC4)n2)s1 [Example 71, N-[4-(2-Amino-4-{3-[(phenylmethyl)oxy]phenyl}-1,3-thiazol-5-yl)-2-pyrimidinyl]-1,2,3,4-tetrahydro-7-isoquinolinamine] | 100 to 1000 | < 100 | 100 to 1000 | < 100 | > 1000 |  | 
COc1ccc(Nc2nccc(-c3scnc3-c3cccc(NC(=O)c4c(F)cccc4F)c3)n2)cc1F [Example 87, 2,6-Difluoro-N-{3-[5-(2-{[3-fluoro-4-(methyloxy)phenyl]amino}-4-pyrimidinyl)-1,3-thiazol-4-yl]phenyl}benzamide] | 100 to 1000 |  | < 100 |  | > 1000 | 100 to 1000 | 100 to 1000
O=C(Nc1cccc(-c2ncsc2-c2ccnc(Nc3cccc(F)c3)n2)c1)c1c(F)cccc1F [Example 88] | 100 to 1000 |  | < 100 | 100 to 1000 |  | 100 to 1000 | 
